Measured values from ChEMBL document CHEMBL4477252, “Optimization of microtubule affinity regulating kinase (MARK) inhibitors with improved physical properties” (Bioorg Med Chem Lett, 2016).

Tests used:
[1] = molecular target: Mitogen-activated protein kinase 9 (Homo sapiens, UniProt P45984); experiment: Inhibition of full-length recombinant human His-tagged MAPK9 expressed in baculovirus expression system by Z'-LYTE assay
[2] = Inhibition of full-length recombinant human GST and His-tagged AMPK alpha2/beta1/gamma1 expressed in baculovirus expression system by LanthaScreen assay
[3] = molecular target: T1, Receptor-type tyrosine-protein kinase FLT3 (Homo sapiens, UniProt P36888); experiment: Inhibition of recombinant human His-tagged cytoplasmic FLT3 expressed in baculovirus expression system by Z'-LYTE assay
T1 sequence (P36888 whole entry): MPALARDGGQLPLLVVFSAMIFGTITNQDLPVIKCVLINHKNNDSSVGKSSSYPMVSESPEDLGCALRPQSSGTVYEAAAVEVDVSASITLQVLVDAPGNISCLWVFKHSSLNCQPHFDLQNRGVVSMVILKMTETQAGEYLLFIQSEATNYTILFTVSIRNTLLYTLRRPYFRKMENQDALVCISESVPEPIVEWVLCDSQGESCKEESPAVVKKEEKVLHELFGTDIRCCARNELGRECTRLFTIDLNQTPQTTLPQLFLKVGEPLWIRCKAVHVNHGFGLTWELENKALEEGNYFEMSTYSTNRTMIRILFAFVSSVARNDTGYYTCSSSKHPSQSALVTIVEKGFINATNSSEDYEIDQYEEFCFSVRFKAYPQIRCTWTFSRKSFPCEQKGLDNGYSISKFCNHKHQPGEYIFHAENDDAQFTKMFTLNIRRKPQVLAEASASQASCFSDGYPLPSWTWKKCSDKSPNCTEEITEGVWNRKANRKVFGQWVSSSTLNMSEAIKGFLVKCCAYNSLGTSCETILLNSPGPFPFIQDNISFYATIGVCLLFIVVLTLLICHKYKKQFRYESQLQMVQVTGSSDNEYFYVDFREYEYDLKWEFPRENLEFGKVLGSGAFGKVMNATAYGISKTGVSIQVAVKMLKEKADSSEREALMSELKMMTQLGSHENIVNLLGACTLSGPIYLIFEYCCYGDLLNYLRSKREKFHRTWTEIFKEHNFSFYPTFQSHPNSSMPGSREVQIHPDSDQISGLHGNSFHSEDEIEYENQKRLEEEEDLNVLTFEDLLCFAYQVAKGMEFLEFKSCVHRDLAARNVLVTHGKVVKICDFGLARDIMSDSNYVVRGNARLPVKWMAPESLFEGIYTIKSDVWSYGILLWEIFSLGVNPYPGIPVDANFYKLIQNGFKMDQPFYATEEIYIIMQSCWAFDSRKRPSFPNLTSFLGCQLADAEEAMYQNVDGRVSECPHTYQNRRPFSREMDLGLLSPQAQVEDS

[4] = molecular target: T2, Protein kinase C iota type (Homo sapiens, UniProt P41743); experiment: Inhibition of full-length recombinant human His-tagged PRKCI expressed in baculovirus expression system by Z'-LYTE assay
T2 sequence (P41743 whole entry): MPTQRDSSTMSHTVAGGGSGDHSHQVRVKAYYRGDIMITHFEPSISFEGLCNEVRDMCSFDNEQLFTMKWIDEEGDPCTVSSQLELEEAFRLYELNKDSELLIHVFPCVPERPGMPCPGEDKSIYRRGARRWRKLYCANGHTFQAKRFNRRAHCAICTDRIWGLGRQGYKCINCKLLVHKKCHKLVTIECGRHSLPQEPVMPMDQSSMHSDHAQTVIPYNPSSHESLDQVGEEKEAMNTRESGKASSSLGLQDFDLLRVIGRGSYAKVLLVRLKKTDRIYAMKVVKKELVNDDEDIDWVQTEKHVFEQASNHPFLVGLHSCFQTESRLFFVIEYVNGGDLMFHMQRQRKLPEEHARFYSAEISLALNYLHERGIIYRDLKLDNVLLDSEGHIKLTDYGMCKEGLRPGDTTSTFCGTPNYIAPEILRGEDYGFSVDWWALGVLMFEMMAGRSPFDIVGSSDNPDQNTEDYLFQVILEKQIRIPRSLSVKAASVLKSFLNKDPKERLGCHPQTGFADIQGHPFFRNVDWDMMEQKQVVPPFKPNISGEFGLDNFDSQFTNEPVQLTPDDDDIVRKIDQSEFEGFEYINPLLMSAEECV

[5] = molecular target: Mitogen-activated protein kinase 8 (Homo sapiens, UniProt P45983); experiment: Inhibition of full-length recombinant human His-tagged MAPK8 expressed in baculovirus expression system by Z'-LYTE assay
Sequence of Mitogen-activated protein kinase 8 (P45983 whole entry, the tested form may be a part): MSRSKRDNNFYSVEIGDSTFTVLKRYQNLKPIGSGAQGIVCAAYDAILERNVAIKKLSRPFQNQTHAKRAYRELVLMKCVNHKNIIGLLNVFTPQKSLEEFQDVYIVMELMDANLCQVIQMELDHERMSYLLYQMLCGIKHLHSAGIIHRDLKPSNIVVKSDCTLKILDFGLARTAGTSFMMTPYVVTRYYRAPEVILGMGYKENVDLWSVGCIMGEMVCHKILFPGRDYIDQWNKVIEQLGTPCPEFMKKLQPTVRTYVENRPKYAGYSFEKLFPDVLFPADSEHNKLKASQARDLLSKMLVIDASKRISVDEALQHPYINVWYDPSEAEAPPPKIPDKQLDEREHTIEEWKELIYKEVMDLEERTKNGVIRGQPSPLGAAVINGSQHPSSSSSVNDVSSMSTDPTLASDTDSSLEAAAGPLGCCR

[6] = molecular target: Non-receptor tyrosine-protein kinase TYK2 (Homo sapiens, UniProt P29597); experiment: Inhibition of recombinant human N-terminal GST-tagged cytoplasmic TYK2 (833 to 1187 residues) catalytic domain expressed in baculovirus expression system by Z'-LYTE assay
Sequence of Non-receptor tyrosine-protein kinase TYK2 (P29597 whole entry, the tested form may be a part): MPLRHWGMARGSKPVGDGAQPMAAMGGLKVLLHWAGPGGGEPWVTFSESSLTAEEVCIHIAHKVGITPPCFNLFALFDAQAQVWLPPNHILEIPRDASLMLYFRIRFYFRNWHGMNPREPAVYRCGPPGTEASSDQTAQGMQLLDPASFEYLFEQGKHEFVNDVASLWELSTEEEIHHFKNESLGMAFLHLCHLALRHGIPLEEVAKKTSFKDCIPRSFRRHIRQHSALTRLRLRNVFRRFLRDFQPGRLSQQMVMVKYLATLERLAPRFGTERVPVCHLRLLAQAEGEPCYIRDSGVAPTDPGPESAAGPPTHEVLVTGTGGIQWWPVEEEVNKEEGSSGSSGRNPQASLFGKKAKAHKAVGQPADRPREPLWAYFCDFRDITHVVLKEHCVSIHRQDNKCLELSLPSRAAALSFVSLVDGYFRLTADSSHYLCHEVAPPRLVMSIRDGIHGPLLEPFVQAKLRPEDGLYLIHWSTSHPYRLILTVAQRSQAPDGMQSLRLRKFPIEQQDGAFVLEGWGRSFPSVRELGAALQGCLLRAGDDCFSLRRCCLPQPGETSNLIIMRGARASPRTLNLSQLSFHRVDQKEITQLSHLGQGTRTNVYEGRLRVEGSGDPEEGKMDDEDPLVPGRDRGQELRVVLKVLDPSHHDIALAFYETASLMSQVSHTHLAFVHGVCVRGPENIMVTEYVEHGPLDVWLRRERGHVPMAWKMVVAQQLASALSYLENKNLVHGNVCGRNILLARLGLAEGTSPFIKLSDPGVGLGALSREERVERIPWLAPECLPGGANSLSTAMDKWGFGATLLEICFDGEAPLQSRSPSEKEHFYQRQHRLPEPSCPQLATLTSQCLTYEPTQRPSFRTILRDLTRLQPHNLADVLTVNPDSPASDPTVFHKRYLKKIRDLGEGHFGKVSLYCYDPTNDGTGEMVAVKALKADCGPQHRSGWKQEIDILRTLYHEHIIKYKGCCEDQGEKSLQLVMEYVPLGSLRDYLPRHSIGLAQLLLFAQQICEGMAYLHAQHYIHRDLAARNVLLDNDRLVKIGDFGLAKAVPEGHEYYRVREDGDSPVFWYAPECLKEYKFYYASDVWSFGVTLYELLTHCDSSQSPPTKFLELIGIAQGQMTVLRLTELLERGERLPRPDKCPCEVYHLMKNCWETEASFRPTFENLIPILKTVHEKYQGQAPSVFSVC

[7] = molecular target: Death-associated protein kinase 1 (Homo sapiens, UniProt P53355); experiment: Inhibition of recombinant human GST-tagged DAPK1 catalytic domain expressed in baculovirus expression system by Adapta assay
Sequence of Death-associated protein kinase 1 (P53355 whole entry, the tested form may be a part): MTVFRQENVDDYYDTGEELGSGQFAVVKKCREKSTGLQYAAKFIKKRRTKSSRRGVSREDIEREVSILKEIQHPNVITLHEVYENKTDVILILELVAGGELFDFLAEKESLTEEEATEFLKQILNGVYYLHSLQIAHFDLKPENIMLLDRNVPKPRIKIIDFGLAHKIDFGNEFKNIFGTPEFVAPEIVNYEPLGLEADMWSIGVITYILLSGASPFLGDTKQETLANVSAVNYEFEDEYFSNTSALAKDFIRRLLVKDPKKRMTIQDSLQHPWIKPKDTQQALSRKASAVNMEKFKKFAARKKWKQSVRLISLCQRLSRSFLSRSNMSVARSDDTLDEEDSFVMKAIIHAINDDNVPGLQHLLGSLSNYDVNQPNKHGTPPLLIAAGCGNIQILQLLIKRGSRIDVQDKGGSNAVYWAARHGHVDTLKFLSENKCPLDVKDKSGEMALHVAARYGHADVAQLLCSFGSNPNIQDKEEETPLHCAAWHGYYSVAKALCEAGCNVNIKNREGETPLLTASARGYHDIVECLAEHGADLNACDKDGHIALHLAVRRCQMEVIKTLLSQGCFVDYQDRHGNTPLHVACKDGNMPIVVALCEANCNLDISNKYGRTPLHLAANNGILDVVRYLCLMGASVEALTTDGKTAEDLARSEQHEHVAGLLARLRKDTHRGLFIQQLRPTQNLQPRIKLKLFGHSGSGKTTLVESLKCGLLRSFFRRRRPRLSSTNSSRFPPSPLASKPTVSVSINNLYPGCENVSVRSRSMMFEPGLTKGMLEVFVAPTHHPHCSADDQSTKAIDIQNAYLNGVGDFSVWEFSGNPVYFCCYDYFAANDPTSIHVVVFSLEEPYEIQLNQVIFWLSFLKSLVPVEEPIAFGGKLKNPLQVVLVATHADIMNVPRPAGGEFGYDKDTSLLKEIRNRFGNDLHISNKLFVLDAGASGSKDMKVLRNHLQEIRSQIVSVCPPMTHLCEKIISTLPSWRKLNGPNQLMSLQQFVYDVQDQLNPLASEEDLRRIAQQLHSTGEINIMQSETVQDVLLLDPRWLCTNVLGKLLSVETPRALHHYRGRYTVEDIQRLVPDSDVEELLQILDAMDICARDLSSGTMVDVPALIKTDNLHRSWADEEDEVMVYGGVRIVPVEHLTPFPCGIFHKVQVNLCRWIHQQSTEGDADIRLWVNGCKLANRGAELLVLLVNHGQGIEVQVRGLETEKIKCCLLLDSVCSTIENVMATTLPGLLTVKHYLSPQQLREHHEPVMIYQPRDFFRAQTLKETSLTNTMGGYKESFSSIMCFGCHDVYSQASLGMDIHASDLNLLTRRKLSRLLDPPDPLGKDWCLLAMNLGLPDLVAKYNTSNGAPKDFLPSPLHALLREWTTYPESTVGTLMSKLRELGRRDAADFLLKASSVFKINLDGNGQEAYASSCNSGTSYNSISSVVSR

[8] = molecular target: Casein kinase II subunit alpha (Homo sapiens, UniProt P68400); experiment: Inhibition of full-length recombinant human His-tagged CSNK2A1 expressed in baculovirus expression system by Z'-LYTE assay
Sequence of Casein kinase II subunit alpha (P68400 whole entry): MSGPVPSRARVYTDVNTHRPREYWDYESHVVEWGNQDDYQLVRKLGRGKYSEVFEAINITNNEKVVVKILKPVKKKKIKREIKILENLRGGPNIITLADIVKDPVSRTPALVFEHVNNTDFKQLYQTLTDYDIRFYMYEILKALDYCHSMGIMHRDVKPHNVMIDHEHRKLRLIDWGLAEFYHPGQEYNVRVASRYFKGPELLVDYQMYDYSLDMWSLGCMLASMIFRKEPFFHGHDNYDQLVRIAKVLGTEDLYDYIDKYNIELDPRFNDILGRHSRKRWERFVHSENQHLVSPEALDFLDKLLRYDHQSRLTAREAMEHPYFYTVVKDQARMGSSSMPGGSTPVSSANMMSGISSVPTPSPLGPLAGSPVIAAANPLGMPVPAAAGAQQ

[9] = molecular target: T3, Inhibitor of nuclear factor kappa-B kinase subunit epsilon (Homo sapiens, UniProt Q14164); experiment: Inhibition of full-length recombinant human GST-tagged IKK-epsilon expressed in baculovirus expression system by Z'-LYTE assay
T3 sequence (Q14164 whole entry): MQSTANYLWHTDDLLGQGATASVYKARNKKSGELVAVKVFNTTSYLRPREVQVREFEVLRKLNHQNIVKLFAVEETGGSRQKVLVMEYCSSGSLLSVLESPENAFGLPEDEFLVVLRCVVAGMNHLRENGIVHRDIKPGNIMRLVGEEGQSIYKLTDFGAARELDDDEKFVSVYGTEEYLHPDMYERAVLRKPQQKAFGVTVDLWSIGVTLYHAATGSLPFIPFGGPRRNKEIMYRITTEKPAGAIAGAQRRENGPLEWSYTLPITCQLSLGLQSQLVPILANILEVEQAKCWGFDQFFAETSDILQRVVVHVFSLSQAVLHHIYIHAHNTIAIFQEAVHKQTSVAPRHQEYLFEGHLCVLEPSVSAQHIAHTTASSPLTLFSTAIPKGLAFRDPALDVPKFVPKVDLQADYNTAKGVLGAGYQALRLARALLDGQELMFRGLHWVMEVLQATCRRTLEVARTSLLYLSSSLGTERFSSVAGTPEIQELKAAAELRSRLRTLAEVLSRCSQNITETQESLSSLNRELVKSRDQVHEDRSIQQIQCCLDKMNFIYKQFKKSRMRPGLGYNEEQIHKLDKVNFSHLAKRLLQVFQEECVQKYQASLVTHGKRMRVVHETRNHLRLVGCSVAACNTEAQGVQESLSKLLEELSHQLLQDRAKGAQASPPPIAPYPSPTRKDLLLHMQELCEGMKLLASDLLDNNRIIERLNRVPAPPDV

Sequence of Mitogen-activated protein kinase 9 (P45984 whole entry): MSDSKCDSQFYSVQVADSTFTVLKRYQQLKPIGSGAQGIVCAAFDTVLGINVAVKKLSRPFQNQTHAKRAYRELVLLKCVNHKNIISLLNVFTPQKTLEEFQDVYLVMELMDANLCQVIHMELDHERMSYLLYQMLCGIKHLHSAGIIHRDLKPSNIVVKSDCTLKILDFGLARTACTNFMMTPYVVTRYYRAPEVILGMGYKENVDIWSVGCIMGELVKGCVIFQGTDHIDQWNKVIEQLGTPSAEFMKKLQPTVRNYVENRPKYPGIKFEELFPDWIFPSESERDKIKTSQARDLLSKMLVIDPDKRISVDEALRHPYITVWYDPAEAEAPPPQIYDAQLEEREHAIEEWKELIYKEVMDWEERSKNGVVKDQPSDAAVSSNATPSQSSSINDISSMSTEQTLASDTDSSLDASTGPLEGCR

Compound | IC50 [1] [nM] | IC50 [2] [nM] | IC50 [3] [nM] | IC50 [4] [nM] | IC50 [5] [nM] | IC50 [6] [nM] | IC50 [7] [nM] | IC50 [8] [nM] | IC50 [9] [nM]
Cn1cc(-c2cnc3c(-c4csc(C(=O)NCC(F)(F)F)c4)cnn3c2)cn1 | 1700 | 68 | < 10 | 6700 | 24000 | 92 | < 10 | > 100000 | < 10
Cc1sc(C(=O)N[C@@H]2[C@H](N)CCCC2(F)F)cc1-c1cnn2cc(Cl)cnc12 | 4400 | 290 | 580 | 720 | 15000 | 10000 | 26 | > 100000 | 48
O=C(NCC(F)(F)F)c1cc(-c2cnn3cc(-c4ccc(OCCN5CCCCC5)cc4)cnc23)cs1 | 850 | 25 | < 10 | 1500 | 2800 | 75 | < 10 | 8300 | < 10
Cn1cc(-c2cnc3c(-c4csc(C(=O)N[C@@H]5CCCC[C@@H]5N)c4)cnn3c2)cn1 (racemic) | 640 |  | 1.9 | 37 | 1200 | 52 | 1.9 | > 10000 | 7.1
